Assay results as given in patent publication US12344597B2, “Alkoxy-substituted pyridinyl derivatives as LPA1 receptor antagonists and their use in the treatment of fibrosis” (IDORSIA PHARMACEUTICALS LTD, priority 2018, dated 2025).

Molecular target: human LPA1 receptor (Homo sapiens (Human), UniProt Q92633)
Experiment: Beta-arrestin recruitment assay to determine IC50 values for human LPAR1
Format: cell-based
Conditions: antagonist mode, Tango EDG2-bla U2OS cells, LPA 18:1 500 nM final
Method in brief: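 Antagonist IC50 = concentration giving 50% inhibition of maximal LPA response. Read-out is beta-lactamase reporter activity after arrestin-protease recruitment in U2OS cells bearing LPA1-TEV-Gal4-VP16 construct; cells pre-incubated 20 h, 37 °C, 5% CO2.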

Sequence of human LPA1 receptor (Q92633 whole entry): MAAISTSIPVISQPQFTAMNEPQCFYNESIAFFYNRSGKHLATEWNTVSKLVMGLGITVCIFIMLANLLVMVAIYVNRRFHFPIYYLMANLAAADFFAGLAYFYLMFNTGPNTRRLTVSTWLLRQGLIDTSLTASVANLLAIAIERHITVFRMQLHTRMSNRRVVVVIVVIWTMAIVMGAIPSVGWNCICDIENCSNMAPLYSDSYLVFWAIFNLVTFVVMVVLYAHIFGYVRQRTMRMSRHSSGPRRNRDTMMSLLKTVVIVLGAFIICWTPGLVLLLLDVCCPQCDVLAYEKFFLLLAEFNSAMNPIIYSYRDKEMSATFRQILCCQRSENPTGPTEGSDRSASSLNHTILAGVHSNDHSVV

Row | IC50 [nM] | Compound
1 | 11 | Cc1ccc(NC(=O)C2(c3ccccc3C(C)C)CCN(C(N)=O)CC2)c(OC(F)F)n1 [Ex 17-20, N4-(2-(difluoromethoxy)-6-methylpyridin-3-yl)-4-(2-isopropylphenyl)piperidine-1,4-dicarboxamide]
2 | 5 | Cc1ccc(NC(=O)C2(c3ccccc3C3CCCC3)CN(C(=O)CC(C)(C)C(=O)O)C2)c(OC(F)F)n1 [Ex 31-3, 4-(3-(2-cyclopentylphenyl)-3-((2-(difluoromethoxy)-6-methylpyridin-3-yl)carbamoyl)azetidin-1-yl)-2,2-dimethyl-4-oxobutanoic acid]
3 | 30 | Cc1ccc(NC(=O)C2(c3ccccc3C(C)C)CN(C(=O)OCC3(C(=O)O)COC3)C2)c(OC(F)F)n1 [Ex 14-14, 3-(((3-((2-(difluoromethoxy)-6-methylpyridin-3-yl)carbamoyl)-3-(2-isopropylphenyl)azetidine-1-carbonyl)oxy)methyl)oxetane-3-carboxylic acid]
4 | 19 | Cc1ccc(NC(=O)C2(c3ccccc3C3CC3)CN(C(=O)CC(C)(C)C(=O)O)C2)c(OC(F)F)n1 [Ex 31-1, 4-(3-(2-cyclopropylphenyl)-3-((2-(difluoromethoxy)-6-methylpyridin-3-yl)carbamoyl)azetidin-1-yl)-2,2-dimethyl-4-oxobutanoic acid]
5 | 9 | COC(=O)C(C)(C)CNC(=O)N1CC(C(=O)Nc2ccc(C)nc2OC(F)F)(c2ccccc2C(C)C)C1 [Ex 17-16, methyl 3-(3-((2-(difluoromethoxy)-6-methylpyridin-3-yl)carbamoyl)-3-(2-isopropylphenyl)azetidine-1-carboxamido)-2,2-dimethylpropanoate]
6 | 11 | CCOC(=O)C(C)(C)NC(=O)N1CC(C(=O)Nc2ccc(C)nc2OC(F)F)(c2ccccc2C(C)C)C1 [Ex 17-12, ethyl 2-(3-((2-(difluoromethoxy)-6-methylpyridin-3-yl)carbamoyl)-3-(2-isopropylphenyl)azetidine-1-carboxamido)-2-methylpropanoate]
7 | 10 | Cc1ccc(NC(=O)C2(c3cc(F)ccc3C(C)C)CN(C(=O)CC(C)(C)C(=O)O)C2)c(OC(F)F)n1 [Ex 39-5, 4-(3-((2-(difluoromethoxy)-6-methylpyridin-3-yl)carbamoyl)-3-(5-fluoro-2-isopropylphenyl)azetidin-1-yl)-2,2-dimethyl-4-oxobutanoic acid]
8 | 1 | Cc1ccc(NC(=O)C2(c3ccccc3C(C)C)CN(c3ccc(C#N)cn3)C2)c(OC(F)F)n1 [Ex 18-22, 1-(5-cyanopyridin-2-yl)-N-(2-(difluoromethoxy)-6-methylpyridin-3-yl)-3-(2-isopropylphenyl)azetidine-3-carboxamide]
9 | 6 | Cc1ccc(NC(=O)C2(c3ccccc3C3CCC3)CN(C(=O)CC(C)(C)C(=O)O)C2)c(OC(F)F)n1 [Ex 31-2, 4-(3-(2-cyclobutylphenyl)-3-((2-(difluoromethoxy)-6-methylpyridin-3-yl)carbamoyl)azetidin-1-yl)-2,2-dimethyl-4-oxobutanoic acid]
10 | 31 | CCOc1nc(C)ccc1NC(=O)C1(c2ccccc2C(C)C)CN(S(N)(=O)=O)C1 [Ex 15-17, N-(2-ethoxy-6-methylpyridin-3-yl)-3-(2-isopropylphenyl)-1-sulfamoylazetidine-3-carboxamide]

The next lines start with the compound.

Row | Compound | IC50 [nM]
11 | Cc1ccc(NC(=O)C2(c3ccccc3C(C)C)CN(CC(C)(C)C(=O)O)C2)c(OC(F)F)n1 [Ex 11-25, 3-(3-((2-(difluoromethoxy)-6-methylpyridin-3-yl)carbamoyl)-3-(2-isopropylphenyl)azetidin-1-yl)-2,2-dimethylpropanoic acid] | 20
12 | Cc1ccc(NC(=O)C2(c3ccccc3C(C)C)CN(C(=O)C3C[C@H](O)CN3)C2)c(OC(F)F)n1 (stereo partly drawn) [Ex 12-41, N-(2-(difluoromethoxy)-6-methylpyridin-3-yl)-1-((4S)-4-hydroxypyrrolidine-2-carbonyl)-3-(2-isopropylphenyl)azetidine-3-carboxamide] | 69
13 | Cc1ccc(NC(=O)C2(c3ccccc3C(C)C)CN(C(=O)CNCC3(O)CC3)C2)c(OC(F)F)n1 [Ex 12-57, N-(2-(difluoromethoxy)-6-methylpyridin-3-yl)-1-(((1-hydroxycyclopropyl)methyl)glycyl)-3-(2-isopropylphenyl)azetidine-3-carboxamide] | 17
14 | CCOC(=O)C1(C(=O)N2CC(C(=O)Nc3ccc(C)nc3OC(F)F)(c3ccccc3C(C)C)C2)CNC1 [Ex 12-113, ethyl 3-(3-((2-(difluoromethoxy)-6-methylpyridin-3-yl)carbamoyl)-3-(2-isopropylphenyl)azetidine-1-carbonyl)azetidine-3-carboxylate] | 53
15 | Cc1ccc(NC(=O)C2(c3ccccc3C(C)C)CN(Cc3c[nH]nc3C(=O)O)C2)c(OC(F)F)n1 [Ex 11-38, 4-((3-((2-(difluoromethoxy)-6-methylpyridin-3-yl)carbamoyl)-3-(2-isopropylphenyl)azetidin-1-yl)methyl)-1H-pyrazole-3-carboxylic acid] | 270
16 | COC(=O)c1ccc(CN2CC(C(=O)Nc3ccc(C)nc3OC(F)F)(c3ccccc3C(C)C)C2)o1 [Ex 11-56, methyl 5-((3-((2-(difluoromethoxy)-6-methylpyridin-3-yl)carbamoyl)-3-(2-isopropylphenyl)azetidin-1-yl)methyl)furan-2-carboxylate] | 64
17 | COC(=O)CNCC(=O)N1CC(C(=O)Nc2ccc(C)nc2OC(F)F)(c2ccccc2C(C)C)C1 [Ex 56, methyl (2-(3-((2-(difluoromethoxy)-6-methylpyridin-3-yl)carbamoyl)-3-(2-isopropylphenyl)azetidin-1-yl)-2-oxoethyl)glycinate] | 8
18 | Cc1ccc(NC(=O)C2(c3ccccc3C(C)C)CCN(C(=O)C[C@@H]3OC(C)(C)OC3=O)CC2)c(OC(F)F)n1 [Ex 12-36, (S)-N-(2-(difluoromethoxy)-6-methylpyridin-3-yl)-1-(2-(2,2-dimethyl-5-oxo-1,3-dioxolan-4-yl)acetyl)-4-(2-isopropylphenyl)piperidine-4-carboxamide] | 21
19 | Cc1ccc(NC(=O)C2(c3ccccc3C(C)C)CN(C(=O)COCCOCC(=O)O)C2)c(OC(F)F)n1 [Ex 12-107, 2-(2-(2-(3-((2-(difluoromethoxy)-6-methylpyridin-3-yl)carbamoyl)-3-(2-isopropylphenyl)azetidin-1-yl)-2-oxoethoxy)ethoxy)acetic acid] | 150
20 | Cc1ccc(NC(=O)C2(c3ncccc3C(C)C)CN(c3nc(C)ncc3F)C2)c(OC(F)F)n1 [Ex 64, N-(2-(difluoromethoxy)-6-methylpyridin-3-yl)-1-(5-fluoro-2-methylpyrimidin-4-yl)-3-(3-isopropylpyridin-2-yl)azetidine-3-carboxamide] | 15
21 | Cc1ccc(NC(=O)C2(c3ccccc3C(C)C)CN(CCCC3(C(=O)O)CC3)C2)c(OC(F)F)n1 [Ex 11-71, 1-(3-(3-((2-(difluoromethoxy)-6-methylpyridin-3-yl)carbamoyl)-3-(2-isopropylphenyl)azetidin-1-yl)propyl)cyclopropane-1-carboxylic acid] | 7
22 | Cc1ccc(NC(=O)C2(c3ccccc3C(C)C)CN(C(=O)CNOCc3ccccc3)C2)c(OC(F)F)n1 [Ex 12-134, 1-((benzyloxy)glycyl)-N-(2-(difluoromethoxy)-6-methylpyridin-3-yl)-3-(2-isopropylphenyl)azetidine-3-carboxamide] | 6
23 | Cc1ccc(NC(=O)C2(c3ccccc3C(C)C)CN(CCNCC(=O)O)C2)c(OC(F)F)n1 [Ex 11-80, (2-(3-((2-(difluoromethoxy)-6-methylpyridin-3-yl)carbamoyl)-3-(2-isopropylphenyl)azetidin-1-yl)ethyl)glycine] | 297
24 | Cc1ccc(NC(=O)C2(c3ccccc3C(C)C)CCN(C(=O)OC(C)(C)C)CC2)c(OC(F)F)n1 [Ex 4-1, tert-butyl 4-((2-(difluoromethoxy)-6-methylpyridin-3-yl)carbamoyl)-4-(2-isopropylphenyl)piperidine-1-carboxylate] | 19
25 | CCOC(=O)c1cn[nH]c1S(=O)(=O)N1CC(C(=O)Nc2ccc(C)nc2OC(F)F)(c2ccccc2C(C)C)C1 [Ex 13-24, ethyl 5-((3-((2-(difluoromethoxy)-6-methylpyridin-3-yl)carbamoyl)-3-(2-isopropylphenyl)azetidin-1-yl)sulfonyl)-1H-pyrazole-4-carboxylate] | 750
26 | Cc1ccc(NC(=O)C2(c3ccccc3C(C)C)CN(C[C@@H](O)CN)C2)c(OC(F)F)n1 [Ex 11-83, (S)-1-(3-amino-2-hydroxypropyl)-N-(2-(difluoromethoxy)-6-methylpyridin-3-yl)-3-(2-isopropylphenyl)azetidine-3-carboxamide] | 20
27 | Cc1ccc(NC(=O)C2(c3ccccc3C(C)C)CN(CCC3(O)CC3)C2)c(OC(F)F)n1 [Ex 11-10, N-(2-(difluoromethoxy)-6-methylpyridin-3-yl)-1-(2-(1-hydroxycyclopropyl)ethyl)-3-(2-isopropylphenyl)azetidine-3-carboxamide] | 12
28 | Cc1ccc(NC(=O)C2(c3c(C)cccc3C(C)C)CNC2)c(OC(F)F)n1 [Ex 33, N-(2-(difluoromethoxy)-6-methylpyridin-3-yl)-3-(2-isopropyl-6-methylphenyl)azetidine-3-carboxamide] | 33
29 | CCNCCN1CC(C(=O)Nc2ccc(C)nc2OC(F)F)(c2ccccc2C(C)C)C1 [Ex 11-63, N-(2-(difluoromethoxy)-6-methylpyridin-3-yl)-1-(2-(ethylamino)ethyl)-3-(2-isopropylphenyl)azetidine-3-carboxamide] | 92
30 | Cc1ccc(NC(=O)C2(c3ccccc3C(C)C)CN(CCNC(=O)CO)C2)c(OC(F)F)n1 [Ex 11-87, N-(2-(difluoromethoxy)-6-methylpyridin-3-yl)-1-(2-(2-hydroxyacetamido)ethyl)-3-(2-isopropylphenyl)azetidine-3-carboxamide] | 26
31 | Cc1ccc(NC(=O)C2(c3ccccc3C(C)C)CN(C(=O)CCC(=O)NS(C)(=O)=O)C2)c(OC(F)F)n1 [Ex 12-119, N-(2-(difluoromethoxy)-6-methylpyridin-3-yl)-3-(2-isopropylphenyl)-1-(4-(methylsulfonamido)-4-oxobutanoyl)azetidine-3-carboxamide] | 35
